The numbers were not newly measured in patent US20220354770A1, “METHOD FOR DYEING KERATINOUS MATERIAL BY MEANS OF A PREMIX OF AMINOSILICONE AND A CHROMOPHORIC COMPOUND” (Henkel AG & Co. KGaA, priority 2019, published 2022), which cites them from elsewhere.

The conditions of the series: 25° C.
On to `O=S(=O)([O-])c1ccc(N=Nc2c(O)ccc3ccccc23)cc1.[Na+]` [Acid Orange 7, sodium salt of 4-[(2-hydroxy-1-naphthyl)azo]benzene sulphonate], for which the solubility in water result is “more than 7 g/L”.

Regarding `Nc1cc(S(=O)(=O)[O-])cc2cc(S(=O)(=O)[O-])c(N=Nc3ccccc3)c(O)c12.[Na+].[Na+]` [Acid Red 33, diantrium salt of 5-amino-4-hydroxy-3-(phenylazo)-naphthalene-2,7-disulphonate], the solubility in water was 2500 µg/mL.

`O=C([O-])c1c(Cl)c(Cl)c(Cl)c(Cl)c1-c1c2c(Br)cc(=O)c(Br)c-2oc2c(Br)c(O)cc(Br)c12.O=C([O-])c1c(Cl)c(Cl)c(Cl)c(Cl)c1-c1c2c(Br)cc(=O)c(Br)c-2oc2c(Br)c(O)cc(Br)c12.[Na+].[Na+]` [Acid Red 92, disodium salt of 3,4,5,6-tetrachloro-2-(1,4,5,8-tetrabromo-6-hydroxy-3-oxoxanthen-9-yl)benzoic acid]: the solubility in water entry was “greater than 10 g/L”.

For `O=C([O-])C1=NN(c2ccc(S(=O)(=O)[O-])cc2)C(=O)C1N=Nc1ccc(S(=O)(=O)[O-])cc1.[Na+].[Na+].[Na+]` (stereo not shown) [Acid Yellow 23, trisodium salt of 4,5-dihydro-5-oxo-1-(4-sulfophenyl)-4-((4-sulfophenyl)azo)-1H-pyrazole-3-carboxylic acid], the “solubility in water” value is reported as “highly soluble”.
